Measurements reported in US20180155757A1, “IDENTIFICATION OF BACTERIA THAT ARE RESISTANT TO CARBAPENEMS BY MEMBRANE IMPERVIOUSNESS” (BIOMÉRIEUX, priority 2015, published 2018).
Where two headings read alike, the source gives them in different places.

Experiments:
Assay in all cases: Etest MIC of indicator carbapenems on MH II agar without/with PMBN
Type in all cases: cell-based
[1] = tested on: E. aerogenes 9306071; settings: E. aerogenes 9306071 (membrane impermeability), Table 4a
Procedure: (§1) The determinations of antibiotic MIC were carried out on solid culture media with the Etest® method. To do this, Etest® strips (bioMérieux, France) were used: • Etest® Imipenem IM 32, and • Etest® Ertapenem ETP 32, and also solid culture media, differing from one another by virtue of their non-inhibitory concentrations of PMBN.
(§2) These solid culture media are prepared in Petri dishes (0=145 mm; V=50 ml) on a base of MH II Agar (Becton Dickinson®, United States), more or less supplemented with PMBN. The PMBN concentrations range from 0 up to concentrations equivalent to one fifth of the MIC of PMBN (⅕ MICPMBN).
(§3) Using a swab and the Retro C80™ rota-plater (bioMérieux, France), the culture media were inoculated with the bacteria, originating from an inoculum of 0.5 McFarland, prepared in 0.85% NaCl solution from colonies subcultured the day before on MH II agar.
(§4) The various Etest® strips are then deposited on the surface of the culture media. After 16 to 20 hours of incubation at 35° C., the MICS were read.
(§5) To do this, imipenem and ertapenem were used as indicator carbapenems. Non-inhibitory concentrations of PMBN, equivalent to concentrations of one tenth ( 1/10), one eighth (⅛) and one fifth (⅕) of the MIC of PMBN, were applied.
(§6) In the light of the MICPMBN values previously identified, very predominantly much higher than 300 μg/ml, the following standard concentrations were retained and applied to the bacterial strains to be tested: 50, 100, 150, 200 and 300 μg/ml.
(§7) By way of indicator carbapenems according to the invention, in addition to imipenem (IM) and ertapenem (ETP), meropenem (MP) was also tested. Like the other two antibiotics, meropenem was used in the form of Etest® strips (Etest® Meropenem MP 32 from the company bioMérieux, France).
(§8) The methods used to prepare the new culture media and to carry out the antibiotic-sensitivity tests are identical to those described above.

[2] = tested on: E. cloacae 9402034; settings: E. cloacae 9402034 (membrane impermeability), Table 4a
Procedure: as §1, §2, §3, §4, §5, §6, §7, §8

[3] = tested on: E. coli 1204043
Procedure: as §1, §2, §3, §4, §5, §6, §7, §8

[4] = tested on: K. pneumoniae 1204034
Procedure: as §1, §2, §3, §4, §5, §6, §7, §8

[5] = tested on: K. pneumoniae 1002015; settings: Klebsiella pneumoniae, 1002015, K. pneumoniae 1002015 (porin−), Table 4, read-out: MIC
Procedure: as §1, §2, §3, §4, §5, §6, §7, §8

[6] = tested on: E. aerogenes 1204048; settings: E. aerogenes 1204048 (membrane impermeability), Table 4a, in µg/mL
Procedure: as §1, §2, §3, §4, §5, §6, §7, §8

[7] = tested on: E. aerogenes 9203076
Procedure: as §1, §2, §3, §4, §5, §6, §7, §8

[8] = tested on: K. pneumoniae KP 63 (porin−); settings: Klebsiella pneumoniae
Procedure: as §1, §2, §3, §4, §7, §8

[9] = tested on: K. pneumoniae KP 55 (porin−); settings: Klebsiella pneumoniae
Procedure: as §1, §2, §3, §4, §7, §8

[10] = tested on: E. cloacae 1008074 (VIM producer)
Procedure: as §1, §2, §3, §4, §7, §8

[11] = tested on: K. pneumoniae 1204036 (membrane impermeability)
Procedure: as §1, §2, §3, §4, §7, §8

[12] = tested on: E. cloacae 1008080 (IMP producer); settings: in µg/mL
Procedure: as §1, §2, §3, §4, §7, §8

[13] = tested on: E. cloacae 1109137 (OXA-48 producer)
Procedure: as §1, §2, §3, §4, §7, §8

C[C@@H](O)[C@H]1C(=O)N2C(C(=O)O)=C(S[C@@H]3CN[C@H](C(=O)N(C)C)C3)[C@H](C)[C@H]12 [MP, meropenem]
MIC ([1]; [PMBN] 0): 4 µg/mL
MIC ([1]; [PMBN] 100): 1.5 µg/mL
MIC ([1]; [PMBN] 200): 1.5 µg/mL
MIC ([1]; [PMBN] 300): 0.5 µg/mL
MIC ([2]; [PMBN] 0): 16 µg/mL
MIC ([2]; [PMBN] 100): 2 µg/mL
MIC ([2]; [PMBN] 200): 2 µg/mL
MIC ([2]; [PMBN] 300): 3 µg/mL
MIC ([3]; E. coli 1204043 (membrane impermeability), [PMBN] 0, Table 4a, in µg/mL): 4
MIC ([3]; E. coli 1204043 (membrane impermeability), [PMBN] 100, Table 4a, in µg/mL): 0.75
MIC ([3]; E. coli 1204043 (membrane impermeability), [PMBN] 200, Table 4a, in µg/mL): 0.38
MIC ([3]; E. coli 1204043 (membrane impermeability), [PMBN] 300, Table 4a, in µg/mL): 0.19
MIC ([3]; Escherichia coli, 1204043, E. coli 1204043 (porin−), [PMBN] 0, Table 4, read-out: MIC): 3 µg/mL
MIC ([3]; Escherichia coli, 1204043, E. coli 1204043 (porin−), [PMBN] 150 μg/ml, Table 4, read-out: MIC): 0.064 µg/mL
MIC ([3]; Escherichia coli, 1204043, E. coli 1204043 (porin−), [PMBN] 200 μg/ml, Table 4, read-out: MIC): 0.008 µg/mL
MIC ([4]; K. pneumoniae 1204034 (membrane impermeability), [PMBN] 0, Table 4a): 16 µg/mL
MIC ([4]; K. pneumoniae 1204034 (membrane impermeability), [PMBN] 100, Table 4a): 1.5 µg/mL
MIC ([4]; K. pneumoniae 1204034 (membrane impermeability), [PMBN] 200, Table 4a): 0.75 µg/mL
MIC ([4]; K. pneumoniae 1204034 (membrane impermeability), [PMBN] 300, Table 4a): 0.38 µg/mL
MIC ([4]; Klebsiella pneumoniae, 1204034, K. pneumoniae 1204034 (porin−), [PMBN] 0, Table 4, read-out: MIC): 12 µg/mL
MIC ([4]; Klebsiella pneumoniae, 1204034, K. pneumoniae 1204034 (porin−), [PMBN] 150 μg/ml, Table 4, read-out: MIC): 0.5 µg/mL
MIC ([4]; Klebsiella pneumoniae, 1204034, K. pneumoniae 1204034 (porin−), [PMBN] 200 μg/ml, Table 4, read-out: MIC): 0.25 µg/mL
MIC ([5]; [PMBN] 0): 2 µg/mL
MIC ([5]; [PMBN] 150 μg/ml): 0.19 µg/mL
MIC ([5]; [PMBN] 200 μg/ml): 0.19 µg/mL
MIC ([6]; [PMBN] 0): >32
MIC ([6]; [PMBN] 100): 1.5
MIC ([6]; [PMBN] 200): 1
MIC ([6]; [PMBN] 300): 0.5-1
MIC ([7]; E. aerogenes 9203076 (membrane impermeability), [PMBN] 0, Table 4a, in µg/mL): 4
MIC ([7]; E. aerogenes 9203076 (membrane impermeability), [PMBN] 100, Table 4a, in µg/mL): 2
MIC ([7]; E. aerogenes 9203076 (membrane impermeability), [PMBN] 200, Table 4a, in µg/mL): 1.5
MIC ([7]; E. aerogenes 9203076 (membrane impermeability), [PMBN] 300, Table 4a, in µg/mL): 0.5-0.75
MIC ([7]; Klebsiella aerogenes, 9203076, E. aerogenes 9203076 (porin−), [PMBN] 0, Table 4, read-out: MIC): 4 µg/mL
MIC ([7]; Klebsiella aerogenes, 9203076, E. aerogenes 9203076 (porin−), [PMBN] 150 μg/ml, Table 4, read-out: MIC): 0.5 µg/mL
MIC ([7]; Klebsiella aerogenes, 9203076, E. aerogenes 9203076 (porin−), [PMBN] 200 μg/ml, Table 4, read-out: MIC): 0.5 µg/mL
MIC ([8]; [PMBN] 0): 0.25 µg/mL
MIC ([8]; [PMBN] 50 μg/ml): 0.25 µg/mL
MIC ([8]; [PMBN] 100 μg/ml): 0.094 µg/mL
MIC ([8]; [PMBN] 150 μg/ml): 0.064 µg/mL
MIC ([8]; [PMBN] 200 μg/ml): 0.023 µg/mL
MIC ([9]; [PMBN] 0): 0.19 µg/mL
MIC ([9]; [PMBN] 50 μg/ml): 0.125 µg/mL
MIC ([9]; [PMBN] 100 μg/ml): 0.064 µg/mL
MIC ([9]; [PMBN] 150 μg/ml): 0.064 µg/mL
MIC ([9]; [PMBN] 200 μg/ml): 0.047 µg/mL
MIC ([10]; [PMBN] 0, Table 4a): 0.38 µg/mL
MIC ([10]; [PMBN] 100, Table 4a): 1.5 µg/mL
MIC ([10]; [PMBN] 200, Table 4a): 1 µg/mL
MIC ([10]; [PMBN] 300, Table 4a): 1.5 µg/mL
MIC ([11]; [PMBN] 0, Table 4a): 32 µg/mL
MIC ([11]; [PMBN] 100, Table 4a): 16 µg/mL
MIC ([11]; [PMBN] 200, Table 4a): 6 µg/mL
MIC ([11]; [PMBN] 300, Table 4a): 4 µg/mL
MIC ([12]; [PMBN] 0, Table 4a): 2
MIC ([12]; [PMBN] 100, Table 4a): 8
MIC ([12]; [PMBN] 200, Table 4a): 6
MIC ([12]; [PMBN] 300, Table 4a): 4-6
MIC ([13]; [PMBN] 0, Table 4a): 3 µg/mL
MIC ([13]; [PMBN] 100, Table 4a): 3 µg/mL
MIC ([13]; [PMBN] 200, Table 4a): 1.5 µg/mL
MIC ([13]; [PMBN] 300, Table 4a): 2 µg/mL
